From patent US20100293626A1, “METHODS FOR IMPROVEMENT OF BIRTH RATES IN CANIDAE ON SOMATIC CELL NUCLEAR TRANSFER” (SEOUL NATIONAL UNIVERSITY INDUSTRY FOUNDATION, priority 2007, published 2010)

How the values were obtained:
[1] = system: reconstructed oocytes (canine cloned embryos); test: Nuclear remodeling of reconstructed oocytes after somatic cell nuclear transfer with roscovitine-treated donor cells; type: cell-based, dog
Method: Before performing somatic cell nuclear transfer, the cells were thawed and cultured for 24 hours in a medium supplemented with 15 μM roscovitine (i.e., DMEM+10% FBS+15 μM roscovitine). Then, the cells were treated with trypsin for about 2 minutes during somatic cell nuclear transfer and collected from the monolayer.
The nuclear donor cells prepared in Example 3 were microinjected into the enucleated oocytes prepared in Example 2. The nuclear donor cells were microinjected into a perivitelline space of the enucleated oocytes in the following manner. The enucleated oocytes were treated with […] phytohemagglutinin in the medium of Table 1, and the slit of the enucleated oocytes was held with a holding pipette. Then, a transfer pipette was inserted into the slit, and the single cells isolated from fibroblasts in Example 3 were injected between the cytoplasm and zona pellucida of the enucleated oocytes by the transfer pipette.
Then, the nuclear donor cell-oocyte couplets were placed in a fusion medium (containing 0.26 M mannitol, 0.1 mM MgSO4, 0.5 mM HEPES and 0.05% BSA) and interposed between two parallel electrodes attached to a micromanipulator (Nikon-Narishige, Japan). Then, the fusion of the couplets was induced by electrical stimulation applied twice at a voltage of 4 kV/cm for 15 μs using an electro-cell fusion apparatus (NEPA GENE Co., Chiba, Japan).
After 1 hour of electrical stimulation, the fusion of the nuclear donor cells with the oocyte cytoplasm was observed under a stereomicroscope. The fused embryos were selected and cultured for 1.5-4 hours in TCM-199 (Table 2) supplemented with 10% (v/v) FBS.
The nuclear transfer embryos obtained in Example 4 were cultured in mSOF containing 10 μM ionophore (Sigma) at 39° C. for 4 minutes, thus inducing the activation of the nuclear transfer embryos. Then, the nuclear transfer embryos were washed and further cultured in mSOF (Table 3) supplemented with 1.9 mM 6-dimethylaminopurin for 4 hours.
After performing canine somatic cell nuclear transfer into the enucleated oocytes using the microinjection method, the difference in the formation and change of nuclei between a control group not treated with roscovitine and a group treated with roscovitine for 24 hours, was examined.

surrogate mothers = test: Pregnancy rate after transfer of nuclear transfer embryos into surrogate mothers; type: in vivo, dog
Method: The nuclear transfer embryos from Example 5 were surgically transferred into the oviduct of estrus synchronized surrogate mothers. The transfer was carried out within 4 hours after the activation of the nuclear transfer embryos. […] For the transfer, the surrogate mothers were anesthetized by vascular injection with 0.1 mg/kg acepromazine and 6 mg/kg propofol, and maintained at the anesthetized state using 2% isoflurane. Operation area of the anesthetized female dogs was aseptically operated and incised on the center of the abdomen according to general laparotomy so as to expose the oviduct. The abdominal cavity was stimulated by hand to draw the ovary, the oviduct and the uterus to the incision. The mesovarium of the drawn ovary was carefully handled to recognize the opening of the oviduct, and a 3.5 F Tom cat catheter (Sherwood, St. Louis, Mo.) equipped with a 1.0 ml tuberculin syringe (Latex free, Becton Dickinson & CO. Franklin lakes, N.J. 07417) was inserted into the oviduct to secure a sufficient space in the front of the catheter. Then, the nuclear transfer embryos were injected into the oviduct through the catheter. Whether the nuclear transfer embryos were successfully injected was observed under a microscope. The abdominal suture was performed with an absorbable suture material, and then, skin suture was performed. To prevent post-surgery infection, a broad range of antibiotic was injected for 3 days.
At 23 days after transferring the nuclear transfer embryos into the surrogate mothers, pregnancies were detected using a SONOACE 9900 (Medison Co. LTD, Seoul, Korea) ultrasound scanner with an attached 7.0 MHZ linear probe. Pregnancy was monitored by ultrasound every 2 weeks after initial confirmation. As a result, it was confirmed that the dogs had become pregnant, and the cloned dogs were produced by inducing natural delivery or performing Cesarean section. […]

[2] = 1 hpf, donor cells treated with roscovitine for 24 hours
[3] = 4 hpa, donor cells treated with roscovitine for 24 hours

CC[C@@H](CO)Nc1nc(NCc2ccccc2)c2ncn(C(C)C)c2n1 [roscovitine]
No. of reconstructed oocytes with IN (intact nucleus) ([1]; 1 hpf (hour post fusion), donor cells treated with roscovitine for 24 hours): 11 | IN (%) for reconstructed oocytes [1, 2]: (32.3 ± 7.0) % | No. of reconstructed oocytes with NE (nuclear enlargement) [1, 2]: 0 | No. of reconstructed oocytes with NS (nuclear swelling) [1, 2]: 0 | No. of reconstructed oocytes with PCC (premature chromosome condensation) [1, 2]: 23 | PCC (%) for reconstructed oocytes [1, 2]: (67.6 ± 7.0) % | No. of reconstructed oocytes with IN (intact nucleus) ([1]; 4 hpa (hour post activation), donor cells treated with roscovitine for 24 hours): 0 | NE (%) for reconstructed oocytes [1, 3]: (23.6 ± 7.5) % | NS (%) for reconstructed oocytes [1, 3]: (73.6 ± 7.5) % | No. of reconstructed oocytes with NE (nuclear enlargement) [1, 3]: 9 | No. of reconstructed oocytes with NS (nuclear swelling) [1, 3]: 28 | No. of reconstructed oocytes with PCC (premature chromosome condensation) [1, 3]: 1 | PCC (%) for reconstructed oocytes [1, 3]: (2.6 ± 3.3) % | Nuclear swelling (NS) compared with control group, in words ([1]; 4 hours after activation of the fused embryos): occurred more in the treated group than in the control group | Rate of premature chromosome condensation (PCC) compared with control group, in words ([1]; after electrical fusion (1 hour elsewhere in the source)): at a rate significantly higher than that in the control group | No. of pregnant mothers (surrogate mothers; 556 embryos transferred into 29 surrogate mothers, donor cells treated with roscovitine): 11 | Pregnancy rate (based on transfer embryos) (surrogate mothers; 556 transfer embryos): 3.95% | Pregnancy rate compared with control, in words (surrogate mothers; somatic cell nuclear transfer after treatment with roscovitine): very significantly increased
